In ChEMBL document CHEMBL5154882, “Discovery of 4-Hydroxyquinazoline Derivatives as Small Molecular BET/PARP1 Inhibitors That Induce Defective Homologous Recombination and Lead to Synthetic Lethality for Triple-Negative Breast Cancer Therapy” (J Med Chem, 2022):
Activity calls are given as the source filed them. The rule behind the calls is not given here.

Legend:
[1] = system: MDA-MB-231; assay: Antitumor activity against human MDA-MB-231 cells xenografted in BALB/c nude mouse assessed as downregulation of PAR at 80 mg/kg by Western blot analysis; type: functional, organism-based
[2] = system: MDA-MB-468; assay: Inhibition of homologous recombinant repair in human MDA-MB-468 cells assessed as down-regulation of Rad51 expression at 5 to 20 uM by Western blot analysis; type: functional, cell-based; conditions: dose 5-20 µM, DDE = dose-dependent effect
[3] = Toxicity in BALB/c nude mouse xenografted with human MDA-MB-468 cells assessed as change in body weight at 40 to 80 mg/kg, ig administered daily for 16 days measured every 3 days; type: organism-based; conditions: in vivo, po, 384 h, dose 40-80 mg/kg, time 16 day
[4] = Oral bioavailability in Sprague-Dawley rat at 10 mg/kg; type: ADME, organism-based; conditions: in vivo
[5] = target: Bromodomain-containing protein 4 (Homo sapiens, UniProt O60885); assay: Inhibition of BRD4 BD1 (unknown origin)

SMILES: COc1cc(OC)c2c(=O)[nH]c(-c3cccc(Cc4n[nH]c(=O)c5ccccc45)c3)nc2c1
- Activity [1]: Active
- inhibition [2]: Dde
- Activity [3]: Non-Toxic
- bioavailability [4]: 23.8%
- IC50 [5]: 251 nM
